Data as given in ChEMBL document CHEMBL1201862, “PubChem BioAssay data set” (2004).
Activity calls are given as the source filed them.

Tests used:
Cytochrome P450 3A4 = Cytochrome P450 3A4 (Homo sapiens, UniProt P08684); conditions: Potency;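 also: confirmatory qHTS run detecting inhibitors and substrates of CYP3A4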
[1] = target: G-protein coupled receptor 55 (Homo sapiens, UniProt Q9Y2T6); assay: GPR55 agonists via beta-arrestin recruitment, primary screen, imaging, U2OS cells, beta-arrestin-GFP redistribution (AID 1961); type: functional
[2] = HEp-2 cell cytotoxicity, dose response, cytotoxicity control for RSV inhibitor project, HTS (AID 2410); type: functional; conditions: human respiratory syncytial virus
[3] = NIH-3T3 fibroblast cytotoxicity, dose response, cytotoxicity control, cell-based, fluorescence, Alamar Blue, secondary assay (AID 2327); type: functional;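 also: NIH-3T3 mouse fibroblasts cultured with fluconazole at 8 µg/mL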
[4] = C. albicans growth with fluconazole, confirmation, fluorescence, retest (AID 2467); type: functional, cell-based
HEK293 [5] = assay: NOD1 signaling inhibitors, primary screen, cell-based, luminescence, uHTS (AID 1578); type: functional; conditions: Homo sapiens
INS1 = assay: beta cell apoptosis inhibitors, cytokine rescue, dose response, luminescence, retest (AID 449756); type: functional, cell-based; conditions: Rattus norvegicus;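 also: cell death triggered by IL-1 beta plus TNF-alpha plus IFN-gamma mixture; protective hits raise ATP signal compared with cytokine alone wells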
[6] = system: Streptococcus sp. 'group A'; assay: growth inhibition of control SK(-) GAS strain, dose response, counter-screen for streptokinase expression inhibitor project, luminescence, kanamycin, BacTiterGlo, confirmation (AID 1900); type: functional, organism-based
HEK293 [7] = assay: cells; type: functional, cell-based; conditions: Homo sapiens
cells [8] = type: functional, cell-based
HEK293 [9] = assay: NOD2 signaling inhibitors in MDP-stimulated cells, cell-based, uHTS, luminescence (AID 2001); type: functional; conditions: Homo sapiens
cells [10] = type: functional, cell-based; remark: listed apart in the source
[11] = target: Nucleotide-binding oligomerization domain-containing protein 2 (Homo sapiens, UniProt Q9HC29); assay: NOD2 signaling inhibitors, cell-based, luminescence, uHTS, HEK293 (AID 1566); type: functional
HEK293 [12] = assay: cells; type: functional, cell-based; conditions: Homo sapiens; remark: listed apart in the source
Streptococcus = assay: Group A Streptococcus viability loss, dose response, counter-screen for streptokinase expression inhibitor project, luminescence, BacTiterGlo (AID 1915); type: functional, organism-based;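 also: potency for reduction of bacterial viability or growth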
[13] = target: T1, Lysosomal acid glucosylceramidase (Homo sapiens, UniProt P04062); assay: Dose response cell-based high throughput screening assay to identify enhancers of beta-glucosidase activity. [Related pubchem assays: 784 ]; type: functional
T1 sequence (P04062 whole entry): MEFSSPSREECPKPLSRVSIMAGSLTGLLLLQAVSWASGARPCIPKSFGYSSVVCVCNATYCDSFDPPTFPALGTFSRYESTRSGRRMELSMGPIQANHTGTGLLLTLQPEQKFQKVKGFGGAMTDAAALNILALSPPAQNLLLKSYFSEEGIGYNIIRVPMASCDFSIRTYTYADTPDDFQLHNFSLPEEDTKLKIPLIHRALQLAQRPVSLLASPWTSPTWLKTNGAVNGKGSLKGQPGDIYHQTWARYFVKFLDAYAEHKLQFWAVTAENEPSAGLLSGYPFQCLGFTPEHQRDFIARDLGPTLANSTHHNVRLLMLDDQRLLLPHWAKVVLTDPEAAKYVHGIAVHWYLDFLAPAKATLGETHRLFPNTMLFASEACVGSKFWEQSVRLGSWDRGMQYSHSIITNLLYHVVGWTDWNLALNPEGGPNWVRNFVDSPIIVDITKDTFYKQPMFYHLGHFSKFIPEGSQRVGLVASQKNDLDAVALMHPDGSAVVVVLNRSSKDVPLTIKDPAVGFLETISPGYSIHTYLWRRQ

[14] = target: T2, Ubiquitin-conjugating enzyme E2 N (Homo sapiens, UniProt P61088); type: functional
T2 sequence (P61088 whole entry): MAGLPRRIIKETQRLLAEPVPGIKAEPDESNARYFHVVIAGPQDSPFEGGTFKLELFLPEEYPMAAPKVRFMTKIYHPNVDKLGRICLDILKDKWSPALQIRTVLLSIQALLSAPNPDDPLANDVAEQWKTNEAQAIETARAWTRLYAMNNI

[15] = target: T2, Ubiquitin-conjugating enzyme E2 N; type: functional; remark: listed apart in the source
Bcl-2-related protein A1 = target: T3, Bcl-2-related protein A1 (Mus musculus, UniProt Q07440); type: functional;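 also: confirmatory dose–response counterscreen on Bfl-1, used to check hits from a UBC13 polyubiquitin inhibitor campaign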
T3 sequence (Q07440 whole entry): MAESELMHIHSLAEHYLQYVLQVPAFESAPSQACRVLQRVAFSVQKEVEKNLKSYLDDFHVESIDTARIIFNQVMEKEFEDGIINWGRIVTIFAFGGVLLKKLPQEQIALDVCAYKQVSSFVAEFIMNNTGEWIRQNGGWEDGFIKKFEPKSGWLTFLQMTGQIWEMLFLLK

[16] = target: Neurotensin receptor type 1 (Homo sapiens, UniProt P30989); type: functional;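 also: Image-based confirmatory dose-response assay measuring agonist activity at NTR1; NTR1-expressing U2OS osteosarcoma cells imaged for beta-arrestin GFP spot formation; agonist potency where compounds increase beta-arrestin recruitment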
[17] = Luminescence Cell-Based Dose Retest to Confirm Inhibitors of Cancer Stem Cells. [Related pubchem assays (depositor defined):AID2717, AID2721]; type: functional; conditions: Homo sapiens
[18] = target: DNA dC->dU-editing enzyme APOBEC-3G (Homo sapiens, UniProt Q9HC16); assay: Dose Response confirmation of small molecule APOBEC3G DNA Deaminase Inhibitors via a fluorescence-based single-stranded DNA deaminase assay. [Related pubchem assays (depositor defined):AID493012, AID493028]; type: functional
Troponin, cardiac muscle = Troponin, cardiac muscle (Homo sapiens, UniProt P19429+P45379+P63316); assay: Fluorescence-based biochemical high throughput dose response assay for activators of the calcium sensitivity of cardiac Regulated Thin Filaments (RTF). [Related pubchem assays (depositor defined):AID493008, AID493018, AID504382, AID504383]; type: protein-complex assay
Cytochrome P450 1A2 = target: T4, Cytochrome P450 1A2 (Homo sapiens, UniProt P05177);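 also: PubChem cytochrome P450 panel assay, CYP1A2 panel member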
T4 sequence (P05177 whole entry): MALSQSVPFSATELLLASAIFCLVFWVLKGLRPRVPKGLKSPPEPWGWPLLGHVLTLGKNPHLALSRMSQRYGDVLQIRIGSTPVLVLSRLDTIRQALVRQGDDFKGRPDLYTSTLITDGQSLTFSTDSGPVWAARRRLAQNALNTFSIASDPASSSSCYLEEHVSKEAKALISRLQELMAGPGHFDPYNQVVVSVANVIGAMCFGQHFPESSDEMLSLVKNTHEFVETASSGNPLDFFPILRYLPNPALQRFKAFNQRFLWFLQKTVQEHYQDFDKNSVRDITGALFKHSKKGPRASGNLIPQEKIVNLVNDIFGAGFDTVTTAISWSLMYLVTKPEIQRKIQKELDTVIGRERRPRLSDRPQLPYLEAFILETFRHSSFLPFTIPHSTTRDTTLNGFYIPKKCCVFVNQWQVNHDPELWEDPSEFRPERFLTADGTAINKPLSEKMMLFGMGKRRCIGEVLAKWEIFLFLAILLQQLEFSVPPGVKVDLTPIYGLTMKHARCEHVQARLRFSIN

[19] = cytotoxicity toward NIH3T3 fibroblasts, dose response, counter-screen, cell-based, ATP luminescence, mouse fibroblasts (AID 2010); type: functional;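 also: cells exposed to compound for about 90 hours before reading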
[20] = target: Induced myeloid leukemia cell differentiation protein Mcl-1 (Homo sapiens, UniProt Q07820); type: functional
Bcl-2-like protein 10 = target: T5, Bcl-2-like protein 10 (Homo sapiens, UniProt Q9HD36); assay: displacers of TR3 peptide from Bcl-B, primary screen, selectivity assay for Bfl-1 inhibitor project, biochemical, fluorescence polarization, FITC-TR3 peptide (AID 748);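 also: fluorescence polarization from a fluorescein-labelled TR3 peptide binding purified Bcl-B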
T5 sequence (Q9HD36 whole entry): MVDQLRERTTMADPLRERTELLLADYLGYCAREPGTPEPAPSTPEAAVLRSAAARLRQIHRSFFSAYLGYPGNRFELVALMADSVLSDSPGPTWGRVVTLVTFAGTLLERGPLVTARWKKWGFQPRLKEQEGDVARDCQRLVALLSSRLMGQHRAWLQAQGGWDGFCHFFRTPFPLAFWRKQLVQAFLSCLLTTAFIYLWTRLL

[21] = inhibitors of intracellular T. cruzi replication, confirmation, NIH3T3 host cells, beta-gal luminescence (AID 2044); type: functional, cell-based;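 also: intracellular parasites grown in NIH/3T3 mouse fibroblasts as host cells; luminescent beta-galactosidase reporter signal from transgenic T. cruzi replicating inside host cells; inhibitors lower the luminescence signal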
[22] = Vero E6 cell cytotoxicity, dose response, cytotoxicity control for non-replicating M. tuberculosis project, secondary assay (AID 492998); type: functional, VeroE6; conditions: Vero C1008
[23] = microbe, parasite or virus in culture; type: functional; conditions: Mycobacterium tuberculosis
[24] = THP-1 cell cytotoxicity, dose response, cytotoxicity control for non-replicating M. tuberculosis project (AID 489025); type: functional
cells [25] = type: functional
[26] = target: Heat shock protein HSP 90-alpha (Homo sapiens, UniProt P07900); type: functional, organism-based
[27] = target: Glyceraldehyde-3-phosphate dehydrogenase (Homo sapiens, UniProt P04406)

SMILES: CN1C[C@@H]2C(c3ccc(Cl)nc3)C3(c4ccc(C#N)cc4)CC2(C3)[C@H]1c1ccccc1 (stereo partly specified)
- AC50 (Cytochrome P450 3A4): 15.8 µM (inconclusive)

SMILES: CCOC(=O)c1nnc(-c2ccc(C)cc2)nc1Oc1ccc(Cl)cc1Cl
- EC50 [1]: 12.4 µM (inactive)
- CC50 [2]: 14.1 µM (active)

SMILES: COc1cccc(/C=N/NC(=O)c2c(C)nc3ccc(Cl)cn23)c1O
- EC50 [3]: > 160 µM (inactive)
- EC50 [4]: 1.36 µM (active)
- EC50 (HEK293 [5]): > 20 µM (inactive)
- AC50 (INS1): 0.879 µM (active)
- EC50 [6]: 3.25 µM (active)
- IC50 (HEK293 [7]): > 20 µM (inactive)
- EC50 (cells [8]): > 350 µM (not active)
- IC50 (HEK293 [9]): > 20 µM (inactive)
- EC50 (cells [10]): 6.42 µM (active)
- EC50 [11]: > 20 µM (inactive)
- IC50 (HEK293 [12]): > 20 µM (inactive)
- EC50 (Streptococcus): 7.14 µM (active)

SMILES: Cc1ccccc1OCC(=O)N(Cc1cccs1)C1CCS(=O)(=O)C1 (stereo unspecified)
- EC50 [13]: > 50 µM (not active)

SMILES: O=C(c1ccc(S(=O)(=O)N2CCCC2)cc1)N1CCC(CN2C(=O)c3cccc4cccc(c34)C2=O)CC1
- IC50 [14]: 6.28 µM (active)
- IC50 [15]: 8.21 µM (active)
- IC50 (Bcl-2-related protein A1): > 20 µM (inactive)

SMILES: CC1CCN(CCCNC(=O)c2ccc3c(=O)n(Cc4ccc(Cl)cc4)c(=S)[nH]c3c2)CC1
- IC50 [14]: > 20 µM (inactive)
- EC50 [16]: 17.9 µM (active)
- AC50 [17]: 6.37 µM (active)

SMILES: CCOC(=O)c1c(C)cc(OC)cc1O [ETHYL EVERNINATE]
- AC50 (Cytochrome P450 3A4): 31.6 µM (inconclusive)

SMILES: Cc1[nH]c(=O)[nH]c(=S)c1C(=O)Nc1ccc(Cl)c(Cl)c1
- IC50 [18]: 9.67 µM (active)

SMILES: O=C(O)c1ccccc1CSc1nnnn1-c1ccccc1
- EC50 (Troponin, cardiac muscle): > 71.5 µM (inactive)

SMILES: Cc1nc(NC(=O)c2ccco2)sc1-c1csc(Nc2ccc(Cl)cc2Cl)n1
- AC50 (Cytochrome P450 1A2): 15.8 µM (inconclusive)
- EC50 [19]: > 60 µM (not active)
- IC50 [20]: 1.56 µM (active)
- IC50 (Bcl-2-like protein 10): > 100 µM (inactive)
- EC50 [21]: 0.537 µM (active)

SMILES: COc1ccc(N)c(OC)c1
- AC50 (Cytochrome P450 3A4): 25.1 µM (inconclusive)

SMILES: C=CCOc1ccc(Br)cc1CNCC
- EC50 (Troponin, cardiac muscle): > 71.5 µM (inactive)

SMILES: Nc1ccccc1C#CC(=O)c1ccccc1
- AC50 (INS1): 7.81 µM (active)
- CC50 [22]: 17.4 µM (active)
- EC50 [16]: 8.09 µM (active)
- CC50 [23]: 16.9 µM (active)
- CC50 [24]: 23.5 µM (active)
- IC50 (cells [25]): 4.2 µM (active)
- AC50 [26]: 5.42 µM (active)

SMILES: C=CCn1c(S)nnc1-c1c[nH]c2ccccc12
- EC50 [13]: > 50 µM (not active)

SMILES: Cc1cc(C)nc(Nc2ccc(N3CCCC3)cc2)n1
- IC50 (Bcl-2-like protein 10): 61.9 µM (inactive)

SMILES: O=C(CSCc1ccc([N+](=O)[O-])cc1)N/N=C/c1ccncc1
- IC50 [14]: 17.3 µM (active)
- IC50 [15]: > 20 µM (inactive)
- IC50 (Bcl-2-related protein A1): > 20 µM (inactive)

SMILES: CCOc1ccc(C2CC(c3c(O)oc4ccccc4c3=O)=NN2c2ccccc2)cc1OC (stereo unspecified)
- EC50 [1]: 8.61 µM (active)

SMILES: O=C(O)CSc1nc(-c2ccccc2)cs1
- IC50 [27]: > 100 µM (not active)
